Laboratory results as given in US5670492A, “DC-89 derivatives” (priority 1994, dated 1997).
≈ marks a conversion by molar mass, not a printed value. Like-named read-outs stand apart in the source and are kept apart here.

Assays:
HeLaS3 cells = assay: Growth Inhibitory Effect Against HeLaS3 cells; type: cell-based; conditions: Homo sapiens
Description: HeLaS3 cells were suspended in MEM medium containing 10% calf serum and 2 mM glutamine to a concentration of 2.67×10^4 cells/mi. The cell suspension thus prepared was put into wells of a 24-well culture plate in an amount of 0.75 ml per well. After the cells were incubated in a CO2 incubator overnight at 37° C., Compound (I) which had been appropriately diluted with a culture medium was added to each well in an amount of 0.25 ml.
The cells were further incubated in the CO2 incubator for 72 hours, and the culture supernatant was removed. Then, the cells were dispersed in a solution of trypsin and EDTA and recovered. The number of cells was counted using a cell counter. The concentration (IC50) of Compound (I) at which the growth of the cells is inhibited by 50% was calculated by comparing the number of untreated cells with the number of the cells treated with Compound (I) at known concentrations.

[1] = Test for Solubility in Water; type: physicochemical; conditions: room temperature
Description: A sample tube was charged with 0.7 mg of Compound (I), and 30 μl of water were added thereto at room temperature. The mixture was stirred, and the solubility in water was measured. When the compound was not dissolved, 30 μl of water was added thereto successively, and the mixture was stirred. The solubility in water was measured when the compound was dissolved.

Sarcoma 180 tumor = assay: Therapeutic Effect Against Sarcoma 180 Tumor; type: in vivo, male ddY-strain mice; conditions: Mus musculus, Sarcoma-180, iv, 168 h, read-out: T/C
Description: Five male ddY-strain mice each weighing 18-20 g were used for each group as test animals, and 5×10^5 Sarcoma 180 tumor cells were implanted at the axilla subcutaneously. One day after the implantation, 0.2 ml of a physiological saline containing Compound (I) at the concentration shown in Table 2 was intravenously administered to each mouse. T/C [T: average tumor volume (mm^3) of the group treated with the test compound, C: average tumor volume (mm^3) of the control group (to which […] of a physiological saline was intravenously administered)] was determined seven days after the implantation.

ddY-strain male mice = assay: Acute Toxicity; type: in vivo; conditions: i.v., mortality at 14 days after administration
Description: Compound (I) was intravenously administered to ddY-strain male mice each weighing 20±1 g. MLD (minimum lethal dose) was determined by observing the mortality at 14 days after administration.

[2] = HeLa S3, 72 hours, read-out: IC50
[3] = 1.0 mg/kg, single i.v. one day after s.c. implantation, tumor volume ratio seven days after implantation

| Compound | IC50 (HeLaS3 cells; [2]) | solubility [1] | IC50 (HeLaS3 cells; HeLa S3, 72 h) | other results |
| --- | --- | --- | --- | --- |
| COC(=O)c1c(C)[nH]c2c1C13CC1CN(C(=O)/C=C/c1ccc(OC)nc1)C3=CC2=O (centres unmarked) [Compound 1] | 0.42 nM |  |  |  |
| COC(=O)c1c(C)[nH]c2c(OC(=O)N3CCN(C)CC3)cc3c(c12)C(CBr)CN3C(=O)/C=C/c1ccc(OC)nc1 (centres unmarked) [Compound 3] |  | > 20 mg/mL | 110 nM | response vs control in vivo at 1 mg/kg (Sarcoma 180 tumor): 36%; MLD (minimum lethal dose) (ddY-strain male mice): 1.0 mg/kg |
| COC(=O)Oc1cc2c(c3c(C(=O)OC)c(C)[nH]c13)C(CBr)CN2C(=O)/C=C/c1ccc(OC)nc1 (centres unmarked) [Compound 4] |  |  | 0.7 nM | response vs control in vivo at 0.5 mg/kg (Sarcoma 180 tumor): 35%; MLD (minimum lethal dose) (ddY-strain male mice): 0.50 mg/kg |
| COC(=O)c1c(C)[nH]c2c1C13CC1CN(C(=O)/C=C/c1cnc(OC)nc1)C3=CC2=O (centres unmarked) [Compound 6] | 0.9 nM |  |  |  |
| COC(=O)c1c(C)[nH]c2c(OC(C)=O)cc3c(c12)C(CBr)CN3C(=O)/C=C/c1cnc(OC)nc1 (centres unmarked) [Compound 11] |  |  | 0.92 nM | response vs control in vivo at 1 mg/kg (Sarcoma 180 tumor): 17%; MLD (minimum lethal dose) (ddY-strain male mice): 1.0 mg/kg |
| COC(=O)c1c(C)[nH]c2c1C13CC1CN(C(=O)/C=C/c1ccc(OC)nn1)C3=CC2=O (centres unmarked) [Compound 12] | 0.28 nM |  |  |  |
| COC(=O)c1c(C)[nH]c2c(OC(=O)N3CCN(C)CC3)cc3c(c12)C(CBr)CN3C(=O)/C=C/c1ccc(OC)cn1 (centres unmarked) [Compound 17] |  | > 20 mg/mL |  |  |
| COC(=O)c1c(C)[nH]c2c1C13CC1CN(C(=O)COc1ccc(OC)cc1)C3=CC2=O (centres unmarked) [Compound 18] | 0.19 nM |  |  |  |
| COC(=O)c1c(C)[nH]c2c(OC(=O)N3CCN(C)CC3)cc3c(c12)C(CBr)CN3C(=O)COc1ccc(OC)cc1 (centres unmarked) [Compound 20] |  |  | 94 nM | response vs control in vivo at 0.5 mg/kg (Sarcoma 180 tumor): 20%; MLD (minimum lethal dose) (ddY-strain male mice): 0.50 mg/kg |
| COC(=O)c1c(C)[nH]c2c1C13CC1CN(C(=O)COc1ccc(OC(F)(F)F)cc1)C3=CC2=O (centres unmarked) [Compound 23] | 1.6 nM |  |  |  |
| COC(=O)c1c(C)[nH]c2c1C13CC1CN(C(=O)/C=C/c1ccc(NC(=O)OC(C)(C)C)cc1)C3=CC2=O (centres unmarked) [Compound 26] | 0.56 nM |  |  |  |
| COC(=O)c1c(C)[nH]c2c1C13CC1CN(C(=O)/C=C/c1ccc(N(C)C)cc1)C3=CC2=O (centres unmarked) [Compound 27] | 1.6 nM |  |  |  |
| COC(=O)c1c(C)[nH]c2c1C13CC1CN(C(=O)/C=C/c1ccc(N)cc1)C3=CC2=O (centres unmarked) [Compound 28] | 2.6 nM |  |  |  |
| COC(=O)c1c(C)[nH]c2c1C13CC1CN(C(=O)/C=C/c1ccc(OC)c(OCCCN)c1)C3=CC2=O (centres unmarked) [Compound 30] | 1.4 nM |  |  |  |
| COC(=O)c1c(C)[nH]c2c(OC(=O)N3CCN(C)CC3)cc3c(c12)C(CBr)CN3C(=O)/C=C/c1ccc(OC)c(OCCCN)c1 (centres unmarked) [Compound 32] |  | > 20 mg/mL |  |  |
| COC(=O)COc1cc(/C=C/C(=O)N2CC3CC34C2=CC(=O)c2[nH]c(C)c(C(=O)OC)c24)ccc1OC (centres unmarked) [Compound 34] | 0.86 nM |  |  |  |
| COC(=O)c1c(C)[nH]c2c1C13CC1CN(C(=O)/C=C/c1ccc(OC)c(N)c1)C3=CC2=O (centres unmarked) [Compound 37] | 0.53 nM |  |  |  |

| Compound | IC50 (HeLaS3 cells; [2]) | solubility [1] | IC50 (HeLaS3 cells; HeLa S3, 72 h) | other results |
| --- | --- | --- | --- | --- |
| COC(=O)Oc1cc2c(c3c(C(=O)OC)c(C)[nH]c13)C(CBr)CN2C(=O)/C=C/c1ccc(OC)c(N)c1 (centres unmarked) [Compound 38] | 0.67 nM |  |  |  |
| COC(=O)c1c(C)[nH]c2c(OC(=O)N3CCN(C)CC3)cc3c(c12)C(CBr)CN3C(=O)/C=C/c1ccc(OC)c(N)c1 (centres unmarked) [Compound 40] |  | > 20 mg/mL |  |  |
| COC(=O)c1c(C)[nH]c2c1C13CC1CN(C(=O)/C=C/c1ccc(OC)c(N(C)C)c1)C3=CC2=O (centres unmarked) [Compound 41] | 0.92 nM |  |  |  |
| COC(=O)c1c(C)[nH]c2c(OC(=O)N(C)N)cc3c(c12)C(CBr)CN3C(=O)/C=C/c1ccc(OC)c(N(C)C)c1 (centres unmarked) [Compound 53] |  |  | 1.2 nM | response vs control in vivo at 2 mg/kg (Sarcoma 180 tumor): 7%; MLD (minimum lethal dose) (ddY-strain male mice): 2.0 mg/kg |
| COC(=O)c1c(C)[nH]c2c(OC(=O)c3ccc(N(C)C)cc3)cc3c(c12)C(CBr)CN3C(=O)/C=C/c1ccc(OC)c(N(C)C)c1 (centres unmarked) [Compound 56] |  |  | 2.2 nM | response vs control in vivo at 1 mg/kg (Sarcoma 180 tumor): 36%; MLD (minimum lethal dose) (ddY-strain male mice): 1.0 mg/kg |
| COC(=O)c1c(C)[nH]c2c(OC(=O)c3nccnc3N)cc3c(c12)C(CBr)CN3C(=O)/C=C/c1ccc(OC)c(N(C)C)c1 (centres unmarked) [Compound 58] |  | > 20 mg/mL |  |  |
| COC(=O)c1c(C)[nH]c2c(OC(=O)c3cccnc3)cc3c(c12)C(CBr)CN3C(=O)/C=C/c1cnc(OC)nc1 (centres unmarked) [Compound 67] |  |  | 1.2 nM | response vs control in vivo at 1 mg/kg (Sarcoma 180 tumor): 26%; MLD (minimum lethal dose) (ddY-strain male mice): 1.0 mg/kg |
| COC(=O)c1c(C)[nH]c2c(OC(=O)NN3CCN(C)CC3)cc3c(c12)C(CBr)CN3C(=O)/C=C/c1cnc(OC)nc1 (centres unmarked) [Compound 71] |  | > 10 mg/mL | 1.5 nM | response vs control in vivo at 2 mg/kg (Sarcoma 180 tumor): 30% |
| COC(=O)c1c(C)[nH]c2c(OC(=O)CSCC(=O)O)cc3c(c12)C(CBr)CN3C(=O)/C=C/c1cnc(OC)nc1 (centres unmarked) [Compound 73] | 1.2 nM | < 0.1 mg/mL |  | response vs control in vivo at 1 mg/kg (Sarcoma 180 tumor; [3]): 36% |
| COC(=O)c1c(C)[nH]c2c(OC(=O)N(C)N)cc3c(c12)C(CBr)CN3C(=O)/C=C/c1cnc(OC)nc1 (centres unmarked) [Compound 74] |  |  | 2.4 nM | response vs control in vivo at 1 mg/kg (Sarcoma 180 tumor): 37% |
| COC(=O)c1c(C)[nH]c2c(OC(=O)c3ccc(CN4CCN(C)CC4)cc3)cc3c(c12)C(CBr)CN3C(=O)/C=C/c1cnc(OC)nc1 (centres unmarked) [Compound 76] | 1.3 nM | > 10 mg/mL |  | response vs control in vivo at 1 mg/kg (Sarcoma 180 tumor; [3]): 25% |
| COC(=O)c1c(C)[nH]c2c(OC(=O)c3cccnc3)cc3c(c12)C(CBr)CN3C(=O)/C=C/c1ccc(N(C)C)cc1 (centres unmarked) [Compound 77] |  |  | 0.45 nM | response vs control in vivo at 4 mg/kg (Sarcoma 180 tumor): 19%; MLD (minimum lethal dose) (ddY-strain male mice): 4.0 mg/kg |
| COC(=O)c1c(C)[nH]c2c(OC(=O)N3CCN(C)CC3)cc3c(c12)C(CBr)CN3C(=O)/C=C/c1ccc(N(C)C)cc1 (centres unmarked) [Compound 79] |  | > 20 mg/mL | 52 nM | response vs control in vivo at 8 mg/kg (Sarcoma 180 tumor): 22% |
| COC(=O)c1c(C)[nH]c2c(O)cc3c(c12)C(CCl)CN3C(=O)/C=C/c1ccc(OC)c(N(C)C)c1 (centres unmarked) [Compound 80] | 0.44 nM | > 15 mg/mL |  |  |
| COC(=O)c1c(C)[nH]c2c(O)cc3c(c12)C(CBr)CN3C(=O)/C=C/c1ccc(OC)c(N(C)C)c1 (centres unmarked) [Compound 81] | 0.5 nM | 2.5 mg/mL (≈ 4.61 mM) |  |  |
| COC(=O)c1c(C)[nH]c2c(OC(=O)CN3CCN(C)CC3)cc3c(c12)C(CBr)CN3C(=O)/C=C/c1ccc(OC)c(N(C)C)c1 (centres unmarked) [Compound 82] |  | > 10 mg/mL | 0.5 nM | MLD (minimum lethal dose) (ddY-strain male mice): 2.0 mg/kg |
| COC(=O)c1c(C)[nH]c2c(OC(=O)CN3CCC(N4CCCCC4)CC3)cc3c(c12)C(CBr)CN3C(=O)/C=C/c1ccc(OC)c(N(C)C)c1 (centres unmarked) [Compound 83] | 0.59 nM | > 20 mg/mL |  |  |
